Assay results: PubChem BioAssay AID2060618 (Molecular Pharmacology Branch, DTP, NCI, 2025)

System: 454973-116-R2-J3-PDC spheroids, percent test/control viability
Assay: Anticancer human tumor 454973-116-R2-J3-PDC patient-derived pancreatic carcinoma cell line growth inhibition [CLK]
Settings: spheroids with HUVEC and MSC; for IC50: curve of first compound; for viability, T/C: stronger effect = lower value
Source text: A high-throughput screen of multi-cell type tumor spheroids was designed to identify active combinations of […] and targeted small molecules. Complex spheroids include a stromal component modeled by human endothelial cells (HUVEC) and fibroblasts modeled by human mesenchymal stem cells (MSCs). The concentration ranges selected for each drug and investigational agent were based upon clinically achievable concentrations if the clinical Cmax of the agent was known.
Compounds. The drugs and investigational agents: cirtuvivint (SM08502; NSC835563), CC-671 (NSC850746), vemurafenib (NSC761431), tapotoclax (NSC804041), sotorasib (NSC818433), adagrasib (NSC831453), MRTX-1133 (NSC836407), BAY2416964 (NSC825713), copanlisib (NSC816437), inavolisib (NSC800729), abemaciclib (NSC768073), osimertinib (NSC779217), entinostat (NSC756642), eltanexor (KPT-8602, NSC794443), venetoclax (NSC766270), ceralasertib (NSC777638), bortezomib (NSC756655), olaparib (NSC753686), talazoparib (NSC767125), alisertib (NSC759677), peposertib (NSC802822), gemcitabine (NSC613327), 5-fluorouracil (NSC19893), SN-38 (NSC673596), oxaliplatin (NSC266046), paclitaxel (NSC125973), and doxorubicin (NSC123127), were obtained from the National Cancer Institute (NCI) Developmental Therapeutics Program Chemical Repository. The FDA-approved anticancer drug set is available from the Developmental Therapeutics Program at https://dtp.cancer.gov/organization/dscb/obtaining/available plates.htm. […] The stock solutions were prepared in dimethyl sulfoxide (DMSO, Sigma-Aldrich, St. Louis, MO, cat. D2650), except for the platinum complexes which were prepared in saline (Quality Biological, Gaithersburg, MD, cat. 114-055-101), at 800-fold the tested concentration and stored at -70 degrees C prior to their use. All drugs and investigational agents were tested over a range starting from a high concentration at or near the clinical Cmax and decreasing in half-log increments. If the clinical Cmax for an agent had not been determined, the highest concentration tested was 10 microM.
Cell Culture. All cells were maintained in an incubator at 37 degrees C and 5% CO2 with 95% humidity. The PDC lines were cultured according to standard operating procedures established by the NCI PDMR. Briefly, all PDCs were thawed and cultured in Matrigel-coated flasks prepared with a working solution of 1X Ham's F-12 nutrient mix, without supplementation (Invitrogen, Waltham, MA, cat. 11765054), 100 U/mL penicillin-streptomycin (Invitrogen, cat. 15140122), and 2.5% Matrigel (Corning Inc., Corning, NY, cat. 354248) for the first three passages. The 947758-054-R-J2-PDC line was cultured in 6B/Colon 1A media, which includes advanced DMEM/F-12 (Thermo Fisher Scientific, cat. 12634028), 10 mM HEPES (Thermo Fisher Scientific, cat. 15630080), 1X GlutaMAX supplement (Thermo Fisher Scientific, cat. 35050061), 0.1 mg/mL primocin (InvivoGen, cat. ant-pm-2), 10% defined fetal bovine serum, heat inactivated (HyClone Laboratories Inc., cat. SH30070.03HI), 1.25 mM N-Acetyl-L-cysteine (Sigma-Aldrich, cat. A9165), 10 mM nicotinamide (Sigma-Aldrich, cat. N0636), 1X B-27 supplement (Thermo Fisher Scientific, cat. 17504044), 1X N-2 supplement (Thermo Fisher Scientific, cat. 17502048), and 10 microM Y-27632 dihydrochloride (Tocris Bioscience, cat. 1254). The 876862-298-R-J1-PDC was cultured in 6E media, which includes all 6B/Colon 1A media components plus 50% L-WRN conditioned media (ATCC, cat. CRL-3276), 50 ng/mL recombinant human EGF recombinant protein (hEGF; Thermo Fisher Scientific, cat. PHG0311), 10 ng/mL recombinant human fibroblast growth factor 10 (hGFG-10; PeproTech, cat. 100-26), 1 ng/mL recombinant human fibroblast growth factor 2 (hFGF-2; PeproTech, cat. 100-18B), and 1 µM prostaglandin E2 (PGE2; Tocris, cat. 2296). The 227483-062-R1-J1-PDC line was cultured in Panc media, containing all 6E components except hFGF-2, with the addition of 500 nM SB-431542 (Selleckchem, cat. S1067) and 10 nM gastrin (Tocris, cat. 3006). […]

[1] = second compound 0.0316 µM, first compound 0.0316 µM
[2] = second compound 0.0316 µM, first compound 0.1 µM
[3] = second compound 0.0316 µM, first compound 0.316 µM
[4] = second compound 0.0316 µM, first compound 1 µM
[5] = second compound 0.0316 µM, first compound 3.16 µM
[6] = second compound 0.0316 µM, first compound 10 µM
[7] = second compound 0.1 µM, first compound 0.0316 µM
[8] = second compound 0.1 µM, first compound 0.1 µM
[9] = second compound 0.1 µM, first compound 0.316 µM
[10] = second compound 0.1 µM, first compound 1 µM
[11] = second compound 0.1 µM, first compound 3.16 µM
[12] = second compound 0.1 µM, first compound 10 µM
[13] = second compound 0.316 µM, first compound 0.0316 µM
[14] = second compound 0.316 µM, first compound 0.1 µM
[15] = second compound 0.316 µM, first compound 0.316 µM
[16] = second compound 0.316 µM, first compound 1 µM
[17] = second compound 0.316 µM, first compound 3.16 µM
[18] = second compound 0.316 µM, first compound 10 µM
[19] = second compound 1 µM, first compound 0.0316 µM
[20] = second compound 1 µM, first compound 0.1 µM
[21] = second compound 1 µM, first compound 0.316 µM
[22] = second compound 1 µM, first compound 1 µM
[23] = second compound 1 µM, first compound 3.16 µM
[24] = second compound 1 µM, first compound 10 µM
[25] = second compound 3.16 µM, first compound 0.0316 µM
[26] = second compound 3.16 µM, first compound 0.1 µM
[27] = second compound 3.16 µM, first compound 0.316 µM
[28] = second compound 3.16 µM, first compound 1 µM
[29] = second compound 3.16 µM, first compound 3.16 µM
[30] = second compound 3.16 µM, first compound 10 µM
[31] = second compound 10 µM, first compound 0.0316 µM
[32] = second compound 10 µM, first compound 0.1 µM
[33] = second compound 10 µM, first compound 0.316 µM
[34] = second compound 10 µM, first compound 1 µM
[35] = second compound 10 µM, first compound 3.16 µM
[36] = second compound 10 µM, first compound 10 µM
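Note: spheroids exposed to compounds for 7 days before readout.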

In the case of `C=C(F)C(=O)N1CCN(c2nc(OCC3CCCN3C)nc3c2CCN(c2cccc4cccc(Cl)c24)C3)CC1CC#N` (stereo unspecified) + CN1CCN(c2cc(C(=O)Nc3cc4cc(-c5cnn(C)c5)ccc4cn3)ccn2)CC1, the IC50 (second compound 0.0316 µM) is reported as 5760 nM, the IC50 (second compound 0.1 µM) is reported as 4990 nM and the IC50 (second compound 0.316 µM) is reported as < 31.6 nM. For the same compound, the IC50 (second compound 1 µM) was < 31.6 nM, the IC50 (second compound 3.16 µM) was < 31.6 nM and the IC50 (second compound 10 µM) was < 31.6 nM. It also gave a viability, T/C [1] of 97.8%, a viability, T/C [2] of 109% and a viability, T/C [3] of 98.9%. For the same compound, the viability, T/C [4] was 101%, the viability, T/C [5] was 101% and the viability, T/C [6] was 3.09%. It also gave a viability, T/C [7] of 75.4%, a viability, T/C [8] of 82.9% and a viability, T/C [9] of 80.2%. For the same compound, the viability, T/C [10] was 81%, the viability, T/C [11] was 91.9% and the viability, T/C [12] was 0.93%. The viability, T/C [13] was 1.92%, the viability, T/C [14] was 2.64% and the viability, T/C [15] was 2.38%. It also gave a viability, T/C [16] of 2.24%, a viability, T/C [17] of 1.56% and a viability, T/C [18] of 0.09%. For the same compound, the viability, T/C [19] was 0.15%, the viability, T/C [20] was 0.21% and the viability, T/C [21] was 2.03%. The viability, T/C [22] was 0.11%, the viability, T/C [23] was 0.1% and the viability, T/C [24] was 1.24%. It also gave a viability, T/C [25] of 0.17%, a viability, T/C [26] of 2.27% and a viability, T/C [27] of 0.55%. It also gave a viability, T/C [28] of 0.15%, a viability, T/C [29] of 0.12% and a viability, T/C [30] of 1%. For the same compound, the viability, T/C [31] was 1.46%, the viability, T/C [32] was 0.37% and the viability, T/C [33] was 0.27%. The viability, T/C [34] was 0.68%, the viability, T/C [35] was 0.23% and the viability, T/C [36] was 0.25%.

In the case of `C=CC(=O)N1CCN(c2nc(=O)n(-c3c(C)ccnc3C(C)C)c3nc(-c4c(O)cccc4F)c(F)cc23)C(C)C1` (stereo unspecified) + CN1CCN(c2cc(C(=O)Nc3cc4cc(-c5cnn(C)c5)ccc4cn3)ccn2)CC1, the IC50 (second compound 0.0316 µM) is reported as > 10000 nM, the IC50 (second compound 0.1 µM) is reported as > 10000 nM and the IC50 (second compound 0.316 µM) is reported as < 31.6 nM. The IC50 (second compound 1 µM) was < 31.6 nM, the IC50 (second compound 3.16 µM) was < 31.6 nM and the IC50 (second compound 10 µM) was < 31.6 nM. For the same compound, the viability, T/C [1] was 97%, the viability, T/C [2] was 99.5% and the viability, T/C [3] was 103%. It also gave a viability, T/C [4] of 110%, a viability, T/C [5] of 110% and a viability, T/C [6] of 119%. For the same compound, the viability, T/C [7] was 87.6%, the viability, T/C [8] was 88.4% and the viability, T/C [9] was 92.6%. It also gave a viability, T/C [10] of 87.1%, a viability, T/C [11] of 98.4% and a viability, T/C [12] of 54.7%. It also gave a viability, T/C [13] of 2.25%, a viability, T/C [14] of 2.21% and a viability, T/C [15] of 6.18%. For the same compound, the viability, T/C [16] was 2.73%, the viability, T/C [17] was 4.43% and the viability, T/C [18] was 2.46%. The viability, T/C [19] was 0.13%, the viability, T/C [20] was 1.49% and the viability, T/C [21] was 1.16%. The viability, T/C [22] was 0.14%, the viability, T/C [23] was 0.16% and the viability, T/C [24] was 1.96%. It also gave a viability, T/C [25] of 1.3%, a viability, T/C [26] of 0.21% and a viability, T/C [27] of 4.08%. For the same compound, the viability, T/C [28] was 0.17%, the viability, T/C [29] was 4.42% and the viability, T/C [30] was 1.08%. It also gave a viability, T/C [31] of 1.96%, a viability, T/C [32] of 0.63% and a viability, T/C [33] of 0.4%. The viability, T/C [34] was 0.69%, the viability, T/C [35] was 0.61% and the viability, T/C [36] was 0.21%.

`COC1C=CCC(C)C(C)S(=O)(=O)NC(=O)c2ccc3c(c2)N(CC2CCC21)CC1(CCCc2cc(Cl)ccc21)CO3` (stereo unspecified) + CN1CCN(c2cc(C(=O)Nc3cc4cc(-c5cnn(C)c5)ccc4cn3)ccn2)CC1 was tested, and the IC50 (second compound 0.0316 µM) was 4900 nM, the IC50 (second compound 0.1 µM) was 621 nM and the IC50 (second compound 0.316 µM) was < 31.6 nM. For the same compound, the IC50 (second compound 1 µM) was < 31.6 nM, the IC50 (second compound 3.16 µM) was < 31.6 nM and the IC50 (second compound 10 µM) was < 31.6 nM. For the same compound, the viability, T/C [1] was 102%, the viability, T/C [2] was 97.9% and the viability, T/C [3] was 92.9%. For the same compound, the viability, T/C [4] was 92.8%, the viability, T/C [5] was 75.8% and the viability, T/C [6] was 8.72%. For the same compound, the viability, T/C [7] was 64.4%, the viability, T/C [8] was 74.1% and the viability, T/C [9] was 52.7%. For the same compound, the viability, T/C [10] was 43.8%, the viability, T/C [11] was 27.5% and the viability, T/C [12] was 2.54%. For the same compound, the viability, T/C [13] was 1.25%, the viability, T/C [14] was 2.28% and the viability, T/C [15] was 2.09%. For the same compound, the viability, T/C [16] was 1.79%, the viability, T/C [17] was 1.28% and the viability, T/C [18] was 0.38%. For the same compound, the viability, T/C [19] was 0.11%, the viability, T/C [20] was 0.13% and the viability, T/C [21] was 2.8%. For the same compound, the viability, T/C [22] was 0.16%, the viability, T/C [23] was 0.14% and the viability, T/C [24] was 0.13%. For the same compound, the viability, T/C [25] was 0.17%, the viability, T/C [26] was 0.17% and the viability, T/C [27] was 0.99%. For the same compound, the viability, T/C [28] was 0.25%, the viability, T/C [29] was 0.33% and the viability, T/C [30] was 0.2%. It also gave a viability, T/C [31] of 0.21%, a viability, T/C [32] of 0.17% and a viability, T/C [33] of 0.9%. For the same compound, the viability, T/C [34] was 0.28%, the viability, T/C [35] was 0.67% and the viability, T/C [36] was 0.21%.
